Reference: US8236935B2, “Gem-difluorinated C-glycoside compounds derived from podophyllotoxin, their preparation and their applications” (Institut National des Sciences Appliquees de Rouen (INSA), priority 2006, dated 2012)
Where “and” joins values, the source holds several entries; their conditions need not be identical. Identical values can stand only once.

Columns and labels:
Format in all cases: cell-based
KB cells [1] = assay: cytotoxicity test, inhibition of cellular growth, KB cells; settings: 10^−5M; for inhibition at 10 µM: Homo sapiens, read-out: inhibition percentage of cellular growth; for inhibition at 10 µM / inhibition percentage of cellular growth: triplicate
Method: (§1) The first cytotoxicity tests were conducted on different cell lines such as KB, PC3, MCF7 and MCF7R, SF268, HL60, HT29, A549 cells at concentrations of 10^−5M in triplicate. Podophyllotoxin 1 and etoposide 2 were also tested under the same conditions as standards.
(§2) The results are expressed as an inhibition percentage of cellular growth.

KB cells [2] = assay: IC50 of cytotoxicity on KB cells; settings: in duplicate (two values per cell, separated by /)
Text: The IC50 values are expressed in μM on KB cells in duplicate and were obtained for the […] leading compounds, i.e. 27a, 32a, 44a, 37a and 46a in parallel with podophyllotoxin and etoposide.

PC3 cells = assay: cytotoxicity test, inhibition of cellular growth, PC3 cells; settings: triplicate; for inhibition percentage of cellular growth: 10^−5M
Method: as §1, §2

MCF7 cells = assay: cytotoxicity test, inhibition of cellular growth, MCF7 cells; settings: 10^−5M, triplicate
Method: as §1, §2

MCF7R cells = assay: cytotoxicity test, inhibition of cellular growth, MCF7R cells; settings: 10^−5M, triplicate
Method: as §1, §2

SF268 cells = assay: cytotoxicity test, inhibition of cellular growth, SF268 cells; settings: triplicate; for inhibition percentage of cellular growth: 10^−5M
Method: as §1, §2

HL60 cells = assay: cytotoxicity test, inhibition of cellular growth, HL60 cells; settings: triplicate; for inhibition percentage of cellular growth: 10^−5M
Method: as §1, §2

HT29 cells = assay: cytotoxicity test, inhibition of cellular growth, HT29 cells; settings: triplicate; for inhibition percentage of cellular growth: 10^−5M
Method: as §1, §2

A549 cells = assay: cytotoxicity test, inhibition of cellular growth, A549 cells; settings: 10^−5M, triplicate
Method: as §1, §2

[3] = test system: KB, PC3, MCF7 and MCF7R, SF268, HL60, HT29, A549 cells; assay: cytotoxicity tests on the panel of cell lines, overall comparison with standards; settings: 10^−5M
Method: as §1, §2

[4] = Homo sapiens, read-out: inhibition percentage of cellular growth

Compound	cytotoxicity compared with etoposide and podophyllotoxin (in words) (KB cells [1])	inhibition at 10 µM (KB cells [1])	IC50 (KB cells [2])	inhibition percentage of cellular growth (KB cells [1])	inhibition percentage of cellular growth (PC3 cells)	inhibition percentage of cellular growth (MCF7 cells)	inhibition percentage of cellular growth (MCF7R cells)	inhibition percentage of cellular growth (SF268 cells)	inhibition percentage of cellular growth (HL60 cells)	inhibition percentage of cellular growth (HT29 cells)	inhibition percentage of cellular growth (A549 cells)	also measured
COc1cc([C@@H]2c3cc4c(cc3[C@@H](NC(=O)C(F)(F)C3(Cl)O[C@H](CO)[C@@H](O)[C@H](O)[C@H]3O)C3COC(=O)[C@@H]32)OCO4)cc(OC)c1OC (stereo partly shown) [compound 37a]	cytotoxicity close to that of etoposide and podophyllotoxin	91%	306 nM	–	–	–	–	–	–	–	–	IC50 (KB cells [2]; Homo sapiens, KB): 273 nM
COc1cc(C2c3cc4c(cc3C(NC(=O)C(F)(F)C3(O)OC5COC(C)OC5C(O)C3O)C3COC(=O)C23)OCO4)cc(OC)c1OC (stereo not shown) [29a]	–	–	–	66%	8%	40%	44%	11%	17%	17%	6%	–
COc1cc([C@@H]2c3cc4c(cc3[C@H](O)[C@H]3COC(=O)[C@H]23)OCO4)cc(OC)c1OC [Podophyllotoxin 1, Podophyllotoxin]	–	90%	22 nM	–	–	–	–	–	–	–	–	inhibition at 10 µM (PC3 cells; Homo sapiens, PC-3, 10^−5M, read-out: inhibition percentage of cellular growth): 65%; inhibition at 10 µM (MCF7 cells; [4]): 55%; inhibition at 10 µM (MCF7R cells; [4]): 55%; inhibition at 10 µM (SF268 cells; Homo sapiens, SF-268, 10^−5M, read-out: inhibition percentage of cellular growth): 74%; inhibition at 10 µM (HL60 cells; Homo sapiens, HL-60, 10^−5M, read-out: inhibition percentage of cellular growth): 74%; inhibition at 10 µM (HT29 cells; Homo sapiens, HT-29, 10^−5M, read-out: inhibition percentage of cellular growth): 84%; inhibition at 10 µM (A549 cells; [4]): 83%; IC50 (KB cells [2]; Homo sapiens, KB): 15 nM
COc1cc([C@@H]2c3cc4c(cc3[C@@H](NC(=O)C(F)(F)[C@]3(O)O[C@H](CO)[C@@H](O)[C@H](O)[C@H]3O)[C@H]3COC(=O)[C@H]23)OCO4)cc(OC)c1O [compound 26a]	–	–	–	43%	10%	37%	35%	7%	17%	10%	23%	–
COc1cc(C2c3cc4c(cc3C(NC(=O)C(F)(F)C3(O)OC5COC(C)OC5C(O)C3O)C3COC(=O)C23)OCO4)cc(OC)c1OC (stereo not shown) [29b]	–	–	–	0%	3%	7%	7%	6%	0%	6%	1%	–
COc1cc([C@@H]2c3cc4c(cc3[C@@H](NC(=O)C(F)(F)[C@]3(O)O[C@H](CO)[C@H](O)[C@H](O)[C@H]3O)[C@H]3COC(=O)[C@H]23)OCO4)cc(OC)c1O [compound 26b]	–	–	–	12%	8%	20%	16%	7%	19%	13%	7%	–
COc1cc([C@@H]2c3cc4c(cc3[C@@H](O[C@@H]3O[C@@H]5CO[C@@H](C)O[C@H]5[C@H](O)[C@H]3O)[C@H]3COC(=O)[C@H]23)OCO4)cc(OC)c1O [Etoposide, etoposide, reference compound]	–	–	–	84%	47%	57%	22%	82%	75%	79%	65%	–
COc1cc(C2c3cc4c(cc3C(NC(=O)C(F)(F)C3(O)OC(CO)C(O)C(O)C3O)C3COC(=O)C23)OCO4)cc(OC)c1OC (stereo not shown) [compound 27b]	–	–	–	12%	8%	20%	10%	7%	19%	8%	6%	–
COc1cc(C2c3cc4c(cc3C(NCC(F)(F)C3(O)OC5COC(C)OC5C(O)C3O)C3COC(=O)C23)OCO4)cc(OC)c1OC (stereo not shown) [compound 46a]	cytotoxicity close to that of etoposide and podophyllotoxin	–	4710 nM and 6030 nM	86%	–	–	–	–	–	–	–	–
COc1cc(C2c3cc4c(cc3C(NC(=O)C(F)(F)C3(O)OC(CO)C(O)C(O)C3O)C3COC(=O)C23)OCO4)cc(OC)c1OC (stereo not shown) [compound 27a]	–	–	3450 nM and 2550 nM	91%	63%	53%	70%	65%	79%	87%	78%	activity compared with etoposide and podophyllotoxin (in words) [3]: activity comparable with that of etoposide and of podophyllotoxin, and even better on certain cell lines
COc1cc([C@@H]2c3cc4c(cc3[C@@H](NC(=O)C(F)(F)[C@@H]3O[C@H](CO)[C@@H](O)[C@H](O)[C@H]3O)C3COC(=O)[C@@H]32)OCO4)cc(OC)c1OC (stereo partly shown) [compound 44a]	cytotoxicity close to that of etoposide and podophyllotoxin	90%	341 nM	–	–	–	–	–	–	–	–	IC50 (KB cells [2]; Homo sapiens, KB): 323 nM
COc1cc(C2c3cc4c(cc3C(NCC(F)(F)C3(O)OC(CO)C(O)C(O)C3O)C3COC(=O)C23)OCO4)cc(OC)c1OC (stereo not shown) [compound 32a]	cytotoxicity close to that of etoposide and podophyllotoxin	–	–	94%	–	–	–	–	–	–	–	–
COc1cc([C@@H]2c3cc4c(cc3[C@@H](N(C)C(=O)C(F)(F)[C@]3(O)O[C@H](COCc5ccccc5)[C@@H](OCc5ccccc5)[C@H](OCc5ccccc5)[C@H]3OCc3ccccc3)C3COC(=O)[C@@H]32)OCO4)cc(OC)c1OC (stereo partly shown) [compound 31a]	–	22%	–	–	–	–	–	–	–	–	–	–
